According to patent US20240180883A1, “TREATMENT OF MIGRAINE” (Allergan Pharmaceuticals International Limited, priority 2020, published 2024):
“Also recorded” adds a separate entry of the source.

Key:
[1] = Adverse reactions in Studies 1 and 2; type: in vivo, human
Text: (§1) In two randomized, double-blind, placebo-controlled, Ph. […] Of the ubrogepant-treated patients in these two studies, approximately 89% were female, 82% were white, 15% were Black, and 17% were of Hispanic or Latino ethnicity. The mean age at study entry was 41 years (range of 18-75 years).

[2] = system: adult patients with migraine; assay: Phase 3 Study 1 (NCT02828020) migraine efficacy; type: in vivo, human
Text: as §1
(§2) In all studies, patients were instructed to treat a migraine with moderate to severe headache pain intensity. […] Up to 23% of patients were taking preventive medications for migraine at baseline. None of these patients were on concomitant preventive medication that act on the CGRP pathway.
(§3) The primary efficacy analyses were conducted in patients who treated a migraine with moderate to severe pain. […] Pain freedom was defined as a reduction of moderate or severe headache pain to no pain, and MBS freedom was defined as the absence of the self-identified MBS (i.e., photophobia, phonophobia, or nausea). Among patients who selected an MBS, the most commonly selected was photophobia (56%), followed by phonophobia (24%) and nausea (19%).
(§4) Table 14 also presents the results of the analyses of the percentage of patients achieving pain relief at 2 hours (defined as a reduction in migraine pain from moderate or severe to mild or none) post-dose and the percentage of patients achieving sustained pain freedom between 2 to 24 hours post-dose.

plasma protein = assay: Plasma protein binding in vitro; type: in vitro ADME
[3] = Long-term safety, open-label extension study; type: in vivo, human
Description: Long-term safety was assessed in 813 patients, dosing intermittently for up to 1 year in an open-label extension study. […] Of these 813 patients, 421 patients were exposed to 50 mg or 100 mg for at least 6 months, and 364 patients were exposed to these doses for at least one year, all of whom treated at least two migraine attacks per month, on average. […] The most common adverse reaction resulting in discontinuation in the long-term safety study was nausea.

[4] = system: adult patients with migraine; assay: Phase 3 Study 2 (NCT02867709) migraine efficacy; type: in vivo, human; conditions: Study 2, 50 mg
Text: as §1, §2, §3, §4

[5] = Ubrogepant clinical pharmacokinetics summary; type: in vivo, human
Description: Ubrogepant is excreted mainly through the biliary/fecal route, while the renal route is a minor route of elimination.
In clinical studies, ubrogepant was administered without regard to food. […]

BCRP and/or P-gp = assay: Predicted interaction with BCRP and/or P-gp inhibitors
Study A: safety = type: in vivo, human
Description: Study A (verapamil and ketoconazole) comprised 3 treatment periods. […] Ubrogepant was administered under fasted conditions.

[6] = Studies 1 and 2, 50 mg (N = 954)
[7] = Studies 1 and 2, 100 mg (N = 485)
[8] = single dose [14C]-ubrogepant, healthy male subjects
[9] = Total: participants who took any investigational product
[10] = Total: participants who took any investigative product
[11] = Treatment A: ubrogepant 100 mg single dose, fasted
[12] = Treatment C: 600 mg rifampin co-administered with 100 mg ubrogepant on Day 14

Compound: C[C@@H]1[C@H](c2ccccc2)C[C@H](NC(=O)c2cnc3c(c2)C[C@@]2(C3)C(=O)Nc3ncccc32)C(=O)N1CC(F)(F)F [ubrogepant, (3′S)-N-((3S,5S,6R)-6-methyl-2-oxo-5-phenyl-1-(2,2,2-trifluoroethyl)piperidin-3-yl)-2′-oxo-1′,2′,5,7-etrahydrospiro[cyclopenta[b]pyridine-6,3′-pyrrolo[2,3-b]pyridine]-3-carboxamide]
- Dry Mouth [1, 6]: <1%
- Nausea [1, 6]: 2%
- Somnolence (includes sedation and fatigue) [1, 6]: 2%
- Dry Mouth [1, 7]: 2%
- Nausea [1, 7]: 4%
- Somnolence (includes sedation and fatigue) [1, 7]: 3%
- Most Bothersome Symptom Free at 2 hours, % Responders ([2]; Study 1, 50 mg): 38.6%
- Most Bothersome Symptom Free at 2 hours, Difference from Placebo ([2]; Study 1, 50 mg): 10.8%
- Pain Relief at 2 hours, % Responders ([2]; Study 1, 50 mg): 60.7%
- Pain free at 2 hours, % Responders ([2]; Study 1, 50 mg): 19.2%
- Pain free at 2 hours, Difference from Placebo ([2]; Study 1, 50 mg): 7.4%
- Sustained pain freedom at 2-24 hours, % Responders ([2]; Study 1, 50 mg): 12.7%
- Most Bothersome Symptom Free at 2 hours, % Responders ([2]; Study 1, 100 mg): 37.7%
- Most Bothersome Symptom Free at 2 hours, Difference from Placebo ([2]; Study 1, 100 mg): 9.9%
- Pain Relief at 2 hours, % Responders ([2]; Study 1, 100 mg): 61.4%
- Pain free at 2 hours, % Responders ([2]; Study 1, 100 mg): 21.2%
- Pain free at 2 hours, Difference from Placebo ([2]; Study 1, 100 mg): 9.4%
- Sustained pain freedom at 2-24 hours, % Responders ([2]; Study 1, 100 mg): 15.4%
- incidence of photophobia and phonophobia compared to placebo ([2]; both doses (50 and 100 mg)): reduced
- fraction unbound (plasma protein): 0.13
- patients withdrawn because of an adverse reaction ([3]; intermittent dosing for up to 1 year, 50 mg or 100 mg): 2.5%
- most common adverse reaction resulting in discontinuation ([3]; long-term safety study): nausea
- Most Bothersome Symptom Free at 2 hours, % Responders [4]: 38.9%
- Most Bothersome Symptom Free at 2 hours, Difference from Placebo [4]: 11.5%
- Pain Relief at 2 hours, % Responders [4]: 62.7%
- Pain free at 2 hours, % Responders [4]: 21.8%
- Pain free at 2 hours, Difference from Placebo [4]: 7.5%
- Sustained pain freedom at 2-24 hours, % Responders [4]: 14.4%
- renal route elimination ([5]; human, in vivo): < 10%
- mean apparent oral clearance (CL/F) ([5]; human, in vivo, po): approximately 87 L/hr
- half-life ([5]; human, plasma, oral, read-out: elimination half-life): 5 to 7 h
- time of peak plasma concentrations ([5]; oral administration): approximately 1.5 hours
- dose recovered as unchanged ubrogepant in feces [5, 8]: 42%
- dose recovered as unchanged ubrogepant in urine [5, 8]: 6%
- mean apparent central volume of distribution (V/L) ([5]; single dose oral administration): approximately 350 L
- change in AUC ([5]; with a high-fat meal): no change in AUC
- delay of time to maximum plasma concentration ([5]; with a high-fat meal): 2 h
- reduction in Cmax ([5]; with a high-fat meal): 22%
- highest predicted potential increase in exposure (BCRP and/or P-gp): ≤ 2 fold
- participants with headache (Study B: adverse events; Study B, whole trial): 13.3%
- Any AE (Study B: adverse events; [9]): 6 (20.0) n (%)
- Dry Mouth (Study B: adverse events; [9]): 1 (3.3) n (%)
- Flatulence (Study B: adverse events; [9]): 1 (3.3) n (%)
- Gastrointestinal Disorders (Study B: adverse events; [9]): 4 (13.3) n (%)
- Headache (Study B: adverse events; [9]): 4 (13.3) n (%)
- Nausea (Study B: adverse events; [9]): 2 (6.7) n (%)
- Nervous System Disorders (Study B: adverse events; [9]): 4 (13.3) n (%)
- AEs leading to discontinuation (Study B: adverse events; [10]): 0 n (%)
- Deaths (Study B: adverse events; [10]): 0 n (%)
- SAEs (Study B: adverse events; [10]): 0 n (%)
- TEAEs (Study B: adverse events; [10]): 6 (20.0) n (%)
- Treatment related TEAEs (Study B: adverse events; [10]): 6 (20.0) n (%)
- AEs leading to discontinuation (Study B: adverse events; [11]): 0 n (%)
- Any AE (Study B: adverse events; [11]): 4 (13.3) n (%)
- Deaths (Study B: adverse events; [11]): 0 n (%)
- Dry Mouth (Study B: adverse events; [11]): 1 (3.3) n (%)
- Flatulence (Study B: adverse events; [11]): 1 (3.3) n (%)
- Gastrointestinal Disorders (Study B: adverse events; [11]): 2 (6.7) n (%)
- Headache (Study B: adverse events; [11]): 2 (6.7) n (%)
- Nausea (Study B: adverse events; [11]): 0 n (%)
- Nervous System Disorders (Study B: adverse events; [11]): 2 (6.7) n (%)
- SAEs (Study B: adverse events; [11]): 0 n (%)
- TEAEs (Study B: adverse events; [11]): 4 (13.3) n (%)
- Treatment related TEAEs (Study B: adverse events; [11]): 4 (13.3) n (%)
- AEs leading to discontinuation (Study B: adverse events; [12]): 0 n (%)
- Any AE (Study B: adverse events; [12]): 2 (7.1) n (%)
- Deaths (Study B: adverse events; [12]): 0 n (%)
- Dry Mouth (Study B: adverse events; [12]): 0 n (%)
- Flatulence (Study B: adverse events; [12]): 0 n (%)
- Gastrointestinal Disorders (Study B: adverse events; [12]): 2 (7.1) n (%)
- Headache (Study B: adverse events; [12]): 1 (3.6) n (%)
- Nausea (Study B: adverse events; [12]): 2 (7.1) n (%)
- Nervous System Disorders (Study B: adverse events; [12]): 1 (3.6) n (%)
- SAEs (Study B: adverse events; [12]): 0 n (%)
- TEAEs (Study B: adverse events; [12]): 2 (7.1) n (%)
- Treatment related TEAEs (Study B: adverse events; [12]): 2 (7.1) n (%)
- safety and tolerability (Study B: adverse events; single oral dose coadministered with multiple doses of rifampin): safe and generally well tolerated; also recorded: safe and generally well-tolerated
- elevations in serum transaminases or bilirubin (Study A: safety; Study A): no participants experienced elevations in serum transaminases or bilirubin greater than or equal to 2-fold ULN
- total TEAEs reported (Study A: safety; Study A, all treatment periods): 39 TEAEs
- safety and tolerability (Study A: safety; single oral dose coadministered with multiple doses of verapamil or ketoconazole, healthy adults): safe and generally well tolerated; also recorded: safe and generally well-tolerated
